Assay results as given in US20070128217A1 (priority 2003, published 2007).

How the values were obtained:
[1] = tested on: control sera (pooled serum of ten healthy LUMC hospital workers; commercial negative donor pooled serum from the Dutch bloodbank); type: binding, human; design: Binding of Control serum LUMC to linear peptides / Binding of Control serum Blood-bank to linear peptides / Binding of Control serum LUMC to looped peptides / Binding of Control Serum Blood-Bank to Looped peptides / Binding of Control serum LUMC to linear peptides of the protein M of SARS-CoV Urbani / Binding of Control serum Blood-bank to linear peptides of the protein M of SARS-CoV Urbani / Binding of Control serum LUMC to looped peptides of the protein M of SARS-CoV Urbani / Binding of Control Serum Blood-Bank to Looped peptides of the protein M of SARS-CoV Urbani: unit not given here
[2] = tested on: recombinant human anti-SARS-CoV antibody 03-018; type: binding; design: Binding of antibody 03-018 to linear peptides of the N protein of SARS-CoV Urbani / Binding of antibody 03-018 to looped/cyclic peptides of the N protein of SARS-CoV Urbani: unit not given here
[3] = tested on: antibodies in sera from SARS patients (sera 1a, 1b, 2, 6, 37, 62, London, SARS-yellow, SARS-green); type: binding, human; design: Binding of serum 6 to linear peptides of protein X1 of SARS-CoV Urbani / Binding of serum 37 to linear peptides of protein X1 of SARS-CoV Urbani / Binding of serum 6 to looped/cyclic peptide (PEPSCAN-ELISA) / Binding of serum 37 to looped/cyclic peptide (PEPSCAN-ELISA) / Binding of serum 37 to looped/cyclic peptides of protein X1 of SARS-CoV Urbani / Binding of serum 6 to linear peptides of protein X2 / Binding of serum 37 to linear peptides of protein X2 / Binding of serum 37 to looped/cyclic peptides of protein X2 of SARS-CoV Urbani / Binding of serum 6 to linear peptides of protein M of SARS-CoV Urbani / Binding of serum 37 to linear peptides of protein M of SARS-CoV Urbani / Binding of serum 6 to looped/cyclic peptides of protein M of SARS-CoV Urbani / Binding of serum 37 to looped/cyclic peptides of protein M of SARS-CoV Urbani / Binding of serum 6 to linear peptides of protein X3 of SARS-CoV Urbani / Binding of serum 37 to linear peptides of protein X3 of SARS-CoV Urbani / Binding of serum 37 to looped/cyclic peptides of protein X3 of SARS-CoV Urbani / Binding of serum 6 to linear peptides of protein X4 of SARS-CoV Urbani / Binding of serum 37 to linear peptides of protein X4 of SARS-CoV Urbani / Binding of serum 37 to looped/cyclic peptides of protein X4 of SARS-CoV Urbani / Binding of serum 6 to linear peptides of protein X5 of SARS-CoV Urbani / Binding of serum 37 to linear peptides of protein X5 of SARS-CoV Urbani / Binding of serum 37 to looped/cyclic peptides of protein X5 of SARS-CoV Urbani / Binding of serum 6 to linear peptides of protein N of SARS-CoV Urbani / Binding of serum 37 to linear peptides of protein N of SARS-CoV Urbani / Binding of serum 6 to linear peptide (PEPSCAN-ELISA) / Binding of serum 1a to looped/cyclic peptides of protein N of SARS-CoV Urbani / Binding of serum 1b to looped/cyclic peptides of protein N of SARS-CoV Urbani / Binding of serum 2 to looped/cyclic peptides of protein N of SARS-CoV Urbani / Binding of serum 6 to looped/cyclic peptides of protein N of SARS-CoV Urbani / Binding of serum 37 to looped/cyclic peptides of protein N of SARS-CoV Urbani / Binding of serum 62 to looped/cyclic peptides of protein N of SARS-CoV Urbani / Binding of serum London to looped/cyclic peptides of protein N of SARS-CoV Urbani / Binding of serum SARS-green to looped/cyclic peptides of protein N of SARS-CoV Urbani: unit not given here
[4] = tested on: rabbit serum obtained by immunizing a rabbit with the SARS-CoV strain Frankfurt 1; type: binding; design: Binding of a rabbit serum to linear peptides / Binding of a rabbit serum to looped peptides / Rabbit serum linear peptides / Rabbit serum looped peptides / Binding of a rabbit serum to linear peptides of protein N of SARS-CoV Urbani (Rabbit serum linear peptides) / Binding of a rabbit serum to looped/cyclic peptides of protein N of SARS-CoV Urbani (Rabbit serum looped peptides): unit not given here

Sequence | Binding of antibody 03-018 to linear peptides of the N protein of SARS-CoV Urbani [2] | Binding of antibody 03-018 to looped/cyclic peptides of the N protein of SARS-CoV Urbani [2] | Binding of serum 1a to linear peptides of protein N of SARS-CoV Urbani [3] | Binding of serum 1a to looped/cyclic peptides of protein N of SARS-CoV Urbani [3] | Binding of serum 1b to linear peptides of protein N of SARS-CoV Urbani [3] | Binding of serum 1b to looped/cyclic peptides of protein N of SARS-CoV Urbani [3] | Binding of serum 2 to linear peptides of protein N of SARS-CoV Urbani [3] | Binding of serum 2 to looped/cyclic peptides of protein N of SARS-CoV Urbani [3] | Binding of serum 6 to linear peptides of protein N of SARS-CoV Urbani [3] | Binding of serum 6 to looped/cyclic peptides of protein N of SARS-CoV Urbani [3] | Binding of serum 37 to linear peptides of protein N of SARS-CoV Urbani [3] | Binding of serum 37 to looped/cyclic peptides of protein N of SARS-CoV Urbani [3] | Binding of serum 62 to linear peptides of protein N of SARS-CoV Urbani [3] | Binding of serum 62 to looped/cyclic peptides of protein N of SARS-CoV Urbani [3] | Binding of serum London to linear peptides of protein N of SARS-CoV Urbani [3] | Binding of serum London to looped/cyclic peptides of protein N of SARS-CoV Urbani [3] | Binding of serum SARS-green to linear peptides of protein N of SARS-CoV Urbani [3] | Binding of serum SARS-green to looped/cyclic peptides of protein N of SARS-CoV Urbani [3] | Binding of serum SARS-yellow to linear peptides of protein N of SARS-CoV Urbani [3] | Binding of serum SARS-yellow to looped/cyclic peptides of protein N of SARS-CoV Urbani [3] | further results
HWPQIAQFAPSASAF | 0.1 | 0.2 | 0.3 | 0.5 | 0.2 | 0.3 | 0.2 | 0.5 | 0.2 | 0.4 | 0.8 | 0.8 | 0.7 | 1.0 | 0.6 | 0.6 | 0.4 | 0.6 | 0.8 | 0.6 | Control Serum Blood-Bank Looped peptides [1]: 0.8; Control serum Blood-bank linear peptides [1]: 0.8; Control serum LUMC linear peptides [1]: 0.7; Control serum LUMC looped peptides [1]: 0.8; Binding of a rabbit serum to linear peptides of protein N of SARS-CoV Urbani (Rabbit serum linear peptides) [4]: 0.1; Binding of a rabbit serum to looped/cyclic peptides of protein N of SARS-CoV Urbani (Rabbit serum looped peptides) [4]: 0.7
IAQFAPSASAFFGMS | 0.1 | 0.3 | 0.2 | 0.4 | 0.1 | 0.2 | 0.1 | 0.4 | 0.1 | 0.3 | 0.6 | 0.7 | 0.5 | 0.6 | 0.4 | 0.4 | 0.2 | 0.4 | 0.6 | 0.4 | Control Serum Blood-Bank Looped peptides [1]: 0.8; Control serum Blood-bank linear peptides [1]: 0.7; Control serum LUMC linear peptides [1]: 0.6; Control serum LUMC looped peptides [1]: 0.6; Binding of a rabbit serum to linear peptides of protein N of SARS-CoV Urbani (Rabbit serum linear peptides) [4]: 0.2; Binding of a rabbit serum to looped/cyclic peptides of protein N of SARS-CoV Urbani (Rabbit serum looped peptides) [4]: 0.4
IGMEVTPSGTWLTYH | 0.1 | 0.2 | 0.2 | 0.5 | 0.1 | 0.3 | 0.1 | 0.5 | 0.2 | 0.3 | 0.6 | 0.8 | 0.6 | 1.0 | 0.5 | 0.6 | 0.3 | 0.7 | 0.5 | 0.5 | Control Serum Blood-Bank Looped peptides [1]: 0.8; Control serum Blood-bank linear peptides [1]: 0.8; Control serum LUMC linear peptides [1]: 0.6; Control serum LUMC looped peptides [1]: 0.8; Binding of a rabbit serum to linear peptides of protein N of SARS-CoV Urbani (Rabbit serum linear peptides) [4]: 0.1; Binding of a rabbit serum to looped/cyclic peptides of protein N of SARS-CoV Urbani (Rabbit serum looped peptides) [4]: 0.6
IGTRNPNNNAATVLQ | 0.1 | 0.3 | 0.3 | 0.4 | 0.1 | 0.3 | 0.4 | 0.7 | 0.2 | 0.4 | 0.7 | 0.9 | 0.8 | 0.8 | 0.5 | 0.6 | 0.5 | 0.7 | 0.6 | 0.5 | Binding of Control Serum Blood-Bank to Looped peptides [1]: 0.9; Binding of Control serum Blood-bank to linear peptides [1]: 0.8; Binding of Control serum LUMC to linear peptides [1]: 0.9; Binding of Control serum LUMC to looped peptides [1]: 0.8; Binding of a rabbit serum to linear peptides of protein N of SARS-CoV Urbani (Rabbit serum linear peptides) [4]: 0.1; Binding of a rabbit serum to looped/cyclic peptides of protein N of SARS-CoV Urbani (Rabbit serum looped peptides) [4]: 0.4
